Assay results reported in patent US8530183B2, “Zinc sensors for cellular imaging” (The Board of Regents of the University of Texas System, priority 2010, dated 2013).
Entries after “also recorded” stand apart in the source; their conditions may differ.

What was measured:
[1] = system: MIN6 cells; test: Epifluorescence ZIMIR imaging of KCl-stimulated insulin/Zn2+ release; type: cell-based, mouse; details: KCl 40 mM
Description: FIGS. 6A-E. ZIMIR imaging of insulin/Zn^2+ release. (FIGS. 6A-E) KCl stimulated insulin/Zn^2+ release in MIN6 cells. Example images of MIN6 cells (FIG. 6A, DIC/Normasky) before (FIG. 6B) and after KCl (40 mM, C) or Zn^2+ addition (1 μM, D). Time courses of ZIMIR signal changes (F/F0) in two example regions of interest (ROI, indicated in D by dashed lines) along the plasma membrane.
Cell culture and ZIMIR imaging by wide field fluorescence microscopy. Details of cell culture are described below. For cell imaging, we cultured cells in 35 mm petri dishes with glass-bottoms (MatTek, Ashland, Mass.). […] To image insulin/Zn^2+ secretion, we routinely included 10 μM of EDTA in SAB to chelate the residual Zn^2+ and to reduce the baseline fluorescence. […]
Membrane ZIMIR fluorescence intensity was measured by drawing regions of interest (ROIs) along the plasma membrane, and its time course was normalized against its baseline value after background subtraction, i.e., (F-Fbkg)/(F0-Fbkg), where Fbkg is the average background fluorescence intensity of a nearby area containing no cells. […] Wide field fluorescence microscopy was carried out on inverted fluorescence microscopes as described (Guo et al., 2008).
ZIMIR imaging by wide field fluorescence microscopy. […]

[2] = system: INS-1 cells; test: Response of membrane-anchored ZIMIR to extracellular Zn2+ and decay upon Zn2+ washout; type: cell-based, rat
Description: FIGS. 5A-B. Membrane anchored ZIMIR reports changes of [Zn^2+]e. (FIG. 5A) Example fluorescence images (Excitation 488±7.5 nm, emission 530±20 nm) of INS-1 cells labeled with ZIMIR at different [Zn^2+]e. (FIG. 5B) Quantification of the average ZIMIR fluorescence intensity along the plasma membrane (IZIMIR(PM)).
(FIG. 7A) Time courses of IZIMIR(PM) decay after washing INS-1 cells (initially bathed in FIBS containing 1 μM Zn^2+) with HBS containing EDTA (10 μM) and DPAS (0-8 μM). (FIG. 7B) ZIMIR imaging of insulin/Zn^2+ release of MIN6 cells bathed in SAB containing EDTA (10 μM) and DPAS (4 μM). Time courses of IZIMIR(PM) fluctuation of four separate regions of interest (ROI 1-4) and example ZIMIR images at different time points were shown (a-e; arrow heads highlighting local ZIMIR increases in separate ROIs at different time).
To characterize the response of membrane anchored ZIMIR to changes of extracellular Zn^2+ concentration ([Zn^2+]), the inventors varied [Zn^2+]e from low nanomolar to micromolar, using Zn^2-1 buffers containing nitrilotriacetic acid (for [Zn^2+]e<100 nM) (Hirano et al., 2000) or histidine (for [Zn^2+]e. 100 nM) (Hauser and Tsien, 2007). After recording fluorescence images at different [Zn^2+]e levels, the inventors washed cells with a nominally Zn^2+ free SAB containing 0.2 mM DPAS and followed the decay of IZIMIR(PM).
Upon membrane depolarization, ZIMIR signal increased immediately and reached a plateau before it gradually declined (FIGS. 6E-F). Unexpectedly, however, in some occasions, ZIMIR signal remained elevated even after the inventors lowered KCl concentration to the resting level (5 mM) (FIG. 9). […] In INS-1 beta cells labeled with ZIMIR, after recording ZIMIR fluorescence in solutions containing ˜1 μM of Zn2+, the inventors perifused cells with a nominally Zn^2+-free solution containing only EDTA (10 μM), or with both EDTA (10 μM) and different concentrations of DPAS.

[3] = system: cultured mammalian cells; test: Growth rate of ZIMIR-labeled cells versus unlabeled cells (cytotoxicity); type: cell-based; details: over the next several days after labeling

**Q.** With CCCCCCCCCCCCN(CC(=O)O)Cc1c2oc3c(CN(CCCCCCCCCCCC)CC(=O)O)c(O)ccc3c(-c3cc(NCCN(CCc4ccccn4)Cc4ccccn4)ccc3C(=O)O)c-2ccc1=O [ZIMIR] as the compound, how does the “ZIMIR fluorescence change upon KCl stimulation” value [1] read?
**A.** robust enhancement in ZIMIR fluorescence

**Q.** What about the “decaying half lifetime of membrane ZIMIR signal upon Zn^2+ washout” value ([2]; INS-1 cells, EDTA 10 μM only, absence of DPAS) of the same compound?
**A.** 2.723 min

**Q.** What about the “ZIMIR fluorescence along the plasma membrane (IZIMIR(PM)) versus [Zn^2+]e” value ([2]; [Zn^2+]e varied from nanomolar to micromolar) of the same compound?
**A.** stepwise increase with incremental level of [Zn^2+]e

**Q.** What about the “growth rate of labeled cells / cytotoxicity” value [3] of the same compound?
**A.** same growth rate as unlabeled cells; also recorded: very little cytotoxicity
